The source of these data is patent publication US20200222400A1, “METHODS FOR THE TREATMENT OF NEUROLOGICAL DISORDERS” (Yumanity Therapeutics, Inc., priority 2019, published 2020).

Each structure is given as a SMILES string.

The target in one experiment is T1, yeast OLE1 (Saccharomyces cerevisiae, UniProt P21147).
T1 construct: expressed in transfected cells; host or cells: S. cerevisiae ole1Δ strain (W303 pdr1Δ pdr3Δ background), pRS316 plasmid, TDH3 promoter
T1 sequence (P21147 1-510): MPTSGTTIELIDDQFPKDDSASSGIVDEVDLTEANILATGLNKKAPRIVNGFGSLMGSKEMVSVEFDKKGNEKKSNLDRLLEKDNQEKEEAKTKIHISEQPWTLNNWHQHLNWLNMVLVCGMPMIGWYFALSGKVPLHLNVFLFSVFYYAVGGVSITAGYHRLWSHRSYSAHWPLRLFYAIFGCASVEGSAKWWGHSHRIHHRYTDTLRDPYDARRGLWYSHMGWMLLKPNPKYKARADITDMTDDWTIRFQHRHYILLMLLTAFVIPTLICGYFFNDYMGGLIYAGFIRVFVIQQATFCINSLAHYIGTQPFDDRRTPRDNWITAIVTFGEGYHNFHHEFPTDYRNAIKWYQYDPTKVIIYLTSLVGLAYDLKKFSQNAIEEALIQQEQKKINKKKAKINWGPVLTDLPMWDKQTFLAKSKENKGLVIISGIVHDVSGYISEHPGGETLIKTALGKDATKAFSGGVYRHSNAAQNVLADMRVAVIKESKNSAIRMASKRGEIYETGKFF
The experiment is described as follows: Growth of yeast surviving solely on yeast OLE1. The class given is cell-based. The note with it: percent of DMSO-treated condition. From the text:
(§1) To generate yeast strains expressing SCD1 or SCD5 as the sole desaturase, the human SCD1 and SCD5 genes were cloned from cDNAs (Harvard PlasmID database Clone ID HsCD00340237 for SCD1 and HsCD00342695 for SCD5) into yeast plasmid pRS316 (ATCC 77145) between the yeast TDH3 promoter and the CYC1 terminator. The coding sequence of yeast OLE1 was also cloned into this plasmid). These clones were then transformed into the ole1Δ strain and plated on CSM-Ura media (CSM lacking uracil) with 2% glucose (w/v) and independent colonies were isolated and amplified.
(§2) All compound profiling experiments were performed using the same basic protocol. Different genetic backgrounds (e.g., gene deletions) or conditions (e.g., addition of oleic and palmitoleic acid) were replaced as indicated below.
(§3) Compound stocks (10 mM in 100% DMSO) were arrayed into 384 round well, v-bottom polypropylene plates and diluted according to indicated dilution factors. Compound administration was performed in two separate steps. First, 15 μL of CSM-Galactose (induces expression of toxic protein) was dispensed into clear 384 well assay plates using a MULTIDROP™ Combi reagent dispenser. The diluted compound stock plates were then applied to the assay plates using an automated workstation (Perkin Elmer JANUS™) outfitted with a 384 pin tool containing slotted pins that deliver 100 nL of compound. The cultures described above were then diluted to a 2× concentration (0.03 and 0.08 for alpha-synuclein and ApoE, final OD600 of 0.015 and 0.04) in CSM-Galactose. For wild-type and Ole1/SCD1/SCD5 plasmid-containing strains, the 2× cell density was 0.02. In all experiments, 15 μL culture was then dispensed into the pinned assay plate to achieve 30 μL of the 1×OD600 culture and a top drug concentration of […]. For 96-well assays (FIGS. 2A and 2B), compound dilutions in DMSO were generated in 96 well plates and 1 μL was manually pipetted into 96 well clear bottom assay plates.
(§4) For experiments using a plasmid-borne copy of Ole1, SCD1, or SCD5 (FIGS. 4B, 7, and 8), media lacking uracil (SX-Ura, where X is glucose, raffinose, or galactose), was used for all steps of the compound profiling protocol to ensure its maintenance throughout the assay.
(§5) After yeast delivery, assay plates were incubated under humidified conditions at 30° C. for 24 to 40 h. ApoE4 rescue experiments were stopped at 24 h, aSyn experiments at 40 h, Ole1 at 24 h, and SCD1/SCD5 at 40 h. The growth of yeast was monitored by reading the OD600 of each well using a microplate reader (Perkin Elmer EnVision™). For model rescue experiments, raw data were processed by background subtracting and calculating a fold-change relative to DMSO control [(EXP−0.035)/(DMSO−0.035)—where 0.035 is the OD600 contributed by an empty well containing 30 μL of media alone]. For growth inhibition of wild-type cells, raw data were processed by background subtracting and converting values to a percent of the nontreated condition for that strain [(EXP−0.035)/(DMSO−0.035)×100%].

In the next experiment the target is T2, human SCD5 (Homo sapiens, UniProt Q86SK9).
T2 construct: host or cells: S. cerevisiae ole1Δ strain (W303 pdr1Δ pdr3Δ background), pRS316 plasmid, TDH3 promoter
T2 sequence (Q86SK9 1-330): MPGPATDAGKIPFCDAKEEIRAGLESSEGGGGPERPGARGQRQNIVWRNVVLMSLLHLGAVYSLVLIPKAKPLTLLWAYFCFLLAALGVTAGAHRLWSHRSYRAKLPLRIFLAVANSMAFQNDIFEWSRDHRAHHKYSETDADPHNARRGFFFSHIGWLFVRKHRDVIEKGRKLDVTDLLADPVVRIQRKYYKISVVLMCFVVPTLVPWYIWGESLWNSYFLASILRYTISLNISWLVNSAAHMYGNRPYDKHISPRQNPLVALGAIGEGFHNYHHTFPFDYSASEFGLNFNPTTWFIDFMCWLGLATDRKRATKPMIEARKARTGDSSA
As to the kind of experiment: Growth of humanized yeast expressing human SCD5 as sole desaturase. The conditions noted are these: yeast growth. The class given is cell-based, Saccharomyces cerevisiae expressing Saccharomyces cerevisiae expressing Saccharomyces cerevisiae expressing Saccharomyces cerevisiae expressing Saccharomyces cerevisiae expressing human SCD5 SCD5 SCD5 SCD5 SCD5.
Excerpt: as §1, §2, §3, §4, §5

Regarding `Cc1nnc(-c2ccc(N3CCC(Oc4cc(F)ccc4Cl)CC3)nn2)o1` [CAY10566], on yeast OLE1, the “growth inhibition of yeast expressing OLE1” value is reported as “resistant”. In addition, on human SCD5, the “half-maximal inhibitory concentration (IC50), SCD5 humanized strain” value is “low nanomolar”.
